Reference: patent publication US20230295197A1, “STAT5 and STAT6 Degraders and Uses Thereof” (REGENTS OF THE UNIVERSITY OF MICHICAN, priority 2022, published 2023)
Read-outs that look alike come from different tables or passages of the source.

Columns and labels:
STAT6 = biological target: T1, STAT6 (Homo sapiens, UniProt P42226); test: Immunoblotting (Western blot) analysis of STAT6 degradation efficiency of degraders in treated cells; type: cell-based
T1 construct: endogenous in cells; host or cells: MOLM-16, KU-812, SKNO1, MB231, L1236
T1 sequence (P42226 1-847): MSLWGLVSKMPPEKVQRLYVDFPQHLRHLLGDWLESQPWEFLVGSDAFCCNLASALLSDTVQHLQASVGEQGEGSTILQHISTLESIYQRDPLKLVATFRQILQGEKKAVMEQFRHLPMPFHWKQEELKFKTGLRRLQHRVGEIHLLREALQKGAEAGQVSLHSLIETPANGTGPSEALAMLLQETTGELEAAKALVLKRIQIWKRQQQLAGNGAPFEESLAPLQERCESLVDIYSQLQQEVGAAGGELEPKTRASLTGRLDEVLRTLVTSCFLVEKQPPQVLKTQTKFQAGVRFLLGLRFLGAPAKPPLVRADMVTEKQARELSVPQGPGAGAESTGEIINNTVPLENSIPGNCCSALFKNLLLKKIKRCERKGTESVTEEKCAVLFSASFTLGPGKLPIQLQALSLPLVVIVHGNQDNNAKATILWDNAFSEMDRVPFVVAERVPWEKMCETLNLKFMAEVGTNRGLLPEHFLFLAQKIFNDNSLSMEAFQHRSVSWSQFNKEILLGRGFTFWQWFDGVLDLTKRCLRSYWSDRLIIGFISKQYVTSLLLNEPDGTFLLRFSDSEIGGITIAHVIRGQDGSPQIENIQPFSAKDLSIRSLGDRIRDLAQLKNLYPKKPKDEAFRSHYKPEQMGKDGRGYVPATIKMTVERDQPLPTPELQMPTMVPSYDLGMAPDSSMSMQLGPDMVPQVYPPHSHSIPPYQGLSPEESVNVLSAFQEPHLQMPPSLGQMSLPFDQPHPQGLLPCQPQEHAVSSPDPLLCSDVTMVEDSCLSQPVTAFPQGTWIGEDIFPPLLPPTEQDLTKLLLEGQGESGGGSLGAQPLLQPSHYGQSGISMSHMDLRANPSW
Procedure, shortened: (§1)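 ~1e6 cells/pt; cpd at indicated conc and duration; RIPA + protease/phosphatase inhibitors; BCA; 20-40 μg/lane Tris-glycine SDS-PAGE; PVDF; primary Ab 1:1000 o/n 4 °C; IRDye secondaries 1 h rt; infrared scan and densitometry; GAPDH loading ctrl.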

STAT5 = test: Immunoblotting (Western blot) analysis of STAT5 degradation efficiency of degraders in treated cells; type: cell-based
Procedure, shortened: as §1

[1] = KU-812 cells, read-out: DC50 S6 KU-812
[2] = KU-812 cells, read-out: DC50 S5 KU-812
[3] = MOLM-16 cells, numeric bound, read-out: DC50 S6 MOLM-16
[4] = MOLM-16 cells, numeric bound, read-out: DC50 S5 MOLM-16
[5] = MOLM-16 cells, class symbols, read-out: DC50 S5 MOLM-16
[6] = MOLM-16 cells, class symbols, read-out: DC50 S6 MOLM-16
[7] = SKNO1 cells, read-out: DC50 S5 SKNO1

DC50 (STAT5; [2])	DC50 (STAT6; [3])	DC50 (STAT5; [5])	DC50 (STAT5; [7])	Compound	DC50 (STAT5; [4])	further results
100 to 1000 nM	–	–	–	CC(C)(C)[C@H](NC(=O)c1cc2cc(C(F)(F)P(=O)(O)O)ccc2s1)C(=O)N1CCC[C@H]1C(=O)N(CCC(=O)NCCCCC#Cc1cccc2c1CN(C1CCC(=O)NC1=O)C2=O)c1ccc(Br)cc1 (stereo partly drawn) [Compound 686, ((2-(((2S)-1-((2S)-2-((4-bromophenyl)(3-((6-(2-(2,6-dioxopiperidin-3-yl)-1-oxoisoindolin-4-yl)hex-5-yn-1-yl)amino)-3-oxopropyl)carbamoyl)pyrrolidin-1-yl)-3,3-dimethyl-1-oxobutan-2-yl)carbamoyl)benzo[b]thiophen-5-yl)difluoromethyl)phosphonic acid]	–	DC50 (STAT6; [1]): > 10000 nM
–	> 300 nM	–	–	CC(C)(C)[C@H](NC(=O)c1cc2cc(C(F)(F)P(=O)(O)O)ccc2s1)C(=O)N1C[C@H](OCCCCCCC#Cc2cccc3c2CN(C2CCC(=O)NC2=O)C3=O)C[C@H]1C(=O)Nc1ncc(-c2ccccc2)s1 (stereo partly drawn) [Compound 606, ((2-(((2S)-1-((2S,4R)-4-((8-(2-(2,6-dioxopiperidin-3-yl)-1-oxoisoindolin-4-yl)oct-7-yn-1-yl)oxy)-2-((5-phenylthiazol-2-yl)carbamoyl)pyrrolidin-1-yl)-3,3-dimethyl-1-oxobutan-2-yl)carbamoyl)benzo[b]thiophen-5-yl)difluoromethyl)phosphonic acid]	> 300 nM	–
100 to 1000 nM	–	< 100 nM	100 to 1000 nM	CC(C)(C)[C@H](NC(=O)c1cc2cc(C(F)(F)P(=O)(O)O)ccc2s1)C(=O)N1CCC[C@H]1C(=O)N(CCC(=O)NCCCC#Cc1cccc2c1CN(C1CCC(=O)NC1=O)C2=O)c1ccc(Br)cc1 (stereo partly drawn) [Compound 406, ((2-(((2S)-1-((2S)-2-((4-bromophenyl)(3-((5-(2-(2,6-dioxopiperidin-3-yl)-1-oxoisoindolin-4-yl)pent-4-yn-1-yl)amino)-3-oxopropyl)carbamoyl)pyrrolidin-1-yl)-3,3-dimethyl-1-oxobutan-2-yl)carbamoyl)benzo[b]thiophen-5-yl)difluoromethyl)phosphonic acid]	–	DC50 (STAT6; [1]): > 10000 nM; DC50 (STAT6; MB231 cells, read-out: DC50 S6 MB231): > 10000 nM; DC50 (STAT6; [6]): > 10000 nM; DC50 (STAT6; SKNO1 cells, read-out: DC50 S6 SKNO1): > 10000 nM
–	> 300 nM	–	> 10000 nM	CC(C)(C)[C@H](NC(=O)c1cc2cc(C(F)(F)P(=O)(O)O)ccc2s1)C(=O)N1CCC[C@H]1C(=O)N(CCC(=O)NCCCC#Cc1cccc2c1CN(C1CCC(=O)NC1=O)C2=O)c1ccc2c(c1)CCCO2 (stereo partly drawn) [Compound 669, ((2-(((2S)-1-((2S)-2-(chroman-6-yl(3-((5-(2-(2,6-dioxopiperidin-3-yl)-1-oxoisoindolin-4-yl)pent-4-yn-1-yl)amino)-3-oxopropyl)carbamoyl)pyrrolidin-1-yl)-3,3-dimethyl-1-oxobutan-2-yl)carbamoyl)benzo[b]thiophen-5-yl)difluoromethyl)phosphonic acid]	> 300 nM	–
100 to 1000 nM	–	< 100 nM	100 to 1000 nM	CN(CCCC#Cc1cccc2c1CN(C1CCC(=O)NC1=O)C2=O)C(=O)CCN(C(=O)[C@@H]1CCCN1C(=O)[C@@H](NC(=O)c1cc2cc(C(F)(F)P(=O)(O)O)ccc2s1)C(C)(C)C)c1ccc2ccccc2c1 (stereo partly drawn) [Compound 680, ((2-(((2S)-1-((2S)-2-((3-((5-(2-(2,6-dioxopiperidin-3-yl)-1-oxoisoindolin-4-yl)pent-4-yn-1-yl)(methyl)amino)-3-oxopropyl)(naphthalen-2-yl)carbamoyl)pyrrolidin-1-yl)-3,3-dimethyl-1-oxobutan-2-yl)carbamoyl)benzo[b]thiophen-5-yl)difluoromethyl)phosphonic acid]	–	DC50 (STAT6; [6]): > 10000 nM
> 10000 nM	> 300 nM	–	> 10000 nM	CC(C)(C)[C@H](NC(=O)c1cc2cc(C(F)(F)P(=O)(O)O)ccc2s1)C(=O)N1CCC[C@H]1C(=O)N(CCC(=O)NCCCC#Cc1cccc2c1CN(C1CCC(=O)NC1=O)C2=O)c1ccc2ncsc2c1 (stereo partly drawn) [Compound 662, ((2-(((2S)-1-((2S)-2-(benzo[d]thiazol-6-yl(3-((5-(2-(2,6-dioxopiperidin-3-yl)-1-oxoisoindolin-4-yl)pent-4-yn-1-yl)amino)-3-oxopropyl)carbamoyl)pyrrolidin-1-yl)-3,3-dimethyl-1-oxobutan-2-yl)carbamoyl)benzo[b]thiophen-5-yl)difluoromethyl)phosphonic acid]	> 300 nM	–

Further lines, the molecule ahead of its results:

Compound	DC50 (STAT5; [2])	DC50 (STAT6; [3])	DC50 (STAT5; [5])	DC50 (STAT5; [7])	DC50 (STAT5; [4])	further results
CN(CCCC#Cc1cccc2c1CN(C1CCC(=O)NC1=O)C2=O)C(=O)CCN(C(=O)[C@@H]1CCCN1C(=O)[C@@H](NC(=O)c1cc2cc(C(F)(F)P(=O)(O)OCOC(=O)C(C)(C)C)ccc2s1)C(C)(C)C)c1ccc2ccoc2c1 (stereo partly drawn) [Compound 674, ((((2-(((2S)-1-((2S)-2-(benzofuran-6-yl(3-((5-(2-(2,6-dioxopiperidin-3-yl)-1-oxoisoindolin-4-yl)pent-4-yn-1-yl)(methyl)amino)-3-oxopropyl)carbamoyl)pyrrolidin-1-yl)-3,3-dimethyl-1-oxobutan-2-yl)carbamoyl)benzo[b]thiophen-5-yl)difluoromethyl)(hydroxy)phosphoryl)oxy)methyl pivalate]	–	> 300 nM	< 100 nM	–	–	–
CC(C)(C)[C@H](NC(=O)c1cc2cc(C(F)(F)P(=O)(O)O)ccc2s1)C(=O)N1C[C@H](NC(=O)CCCCCC#Cc2cccc3c2CN(C2CCC(=O)NC2=O)C3=O)C[C@H]1C(=O)Nc1ncc(-c2ccccc2)s1 (stereo partly drawn) [Compound 567, ((2-(((2S)-1-((2S,4R)-4-(8-(2-(2,6-dioxopiperidin-3-yl)-1-oxoisoindolin-4-yl)oct-7-ynamido)-2-((5-phenylthiazol-2-yl)carbamoyl)pyrrolidin-1-yl)-3,3-dimethyl-1-oxobutan-2-yl)carbamoyl)benzo[b]thiophen-5-yl)difluoromethyl)phosphonic acid]	–	> 300 nM	–	–	> 300 nM	–
Cc1ncsc1-c1ccc([C@H](CC(=O)NCCOCCC(=O)N[C@@H]2C[C@@H](C(=O)Nc3ncc(-c4ccccc4)s3)N(C(=O)[C@@H](NC(=O)c3cc4cc(C(F)(F)P(=O)(O)O)ccc4s3)C(C)(C)C)C2)NC(=O)[C@@H]2C[C@@H](O)CN2C(=O)[C@@H](NC(=O)C2(F)CC2)C(C)(C)C)cc1 [Compound 580, (difluoro(2-(((S)-1-((2S,4R)-4-(3-(2-((S)-3-((2S,4R)-1-((S)-2-(1-fluorocyclopropane-1-carboxamido)-3,3-dimethylbutanoyl)-4-hydroxypyrrolidine-2-carboxamido)-3-(4-(4-methylthiazol-5-yl)phenyl)propanamido)ethoxy)propanamido)-2-((5-phenylthiazol-2-yl)carbamoyl)pyrrolidin-1-yl)-3,3-dimethyl-1-oxobutan-2-yl)carbamoyl)benzo[b]thiophen-5-yl)methyl)phosphonic acid]	–	> 300 nM	–	–	> 300 nM	–
Cc1ncsc1-c1ccc([C@H](CC(=O)NCCCCCCCCCC(=O)N[C@@H]2C[C@@H](C(=O)Nc3ncc(-c4ccccc4)s3)N(C(=O)[C@@H](NC(=O)c3cc4cc(C(F)(F)P(=O)(O)O)ccc4s3)C(C)(C)C)C2)NC(=O)[C@@H]2C[C@@H](O)CN2C(=O)[C@@H](NC(=O)C2(F)CC2)C(C)(C)C)cc1 [Compound 579, (difluoro(2-(((S)-1-((2S,4R)-4-(10-((S)-3-((2S,4R)-1-((S)-2-(1-fluorocyclopropane-1-carboxamido)-3,3-dimethylbutanoyl)-4-hydroxypyrrolidine-2-carboxamido)-3-(4-(4-methylthiazol-5-yl)phenyl)propanamido)decanamido)-2-((5-phenylthiazol-2-yl)carbamoyl)pyrrolidin-1-yl)-3,3-dimethyl-1-oxobutan-2-yl)carbamoyl)benzo[b]thiophen-5-yl)methyl)phosphonic acid]	–	> 300 nM	–	–	> 300 nM	–
CN(CCCC#Cc1cccc2c1CN(C1CCC(=O)NC1=O)C2=O)C(=O)CCN(C(=O)[C@@H]1CCCN1C(=O)[C@@H](NC(=O)c1cc2cc(C(F)(F)P(=O)(O)OCOC(=O)C(C)(C)C)ccc2s1)C(C)(C)C)c1ccc(Br)cc1 (stereo partly drawn) [Compound 677, ((((2-(((2S)-1-((2S)-2-((4-bromophenyl)(3-((5-(2-(2,6-dioxopiperidin-3-yl)-1-oxoisoindolin-4-yl)pent-4-yn-1-yl)(methyl)amino)-3-oxopropyl)carbamoyl)pyrrolidin-1-yl)-3,3-dimethyl-1-oxobutan-2-yl)carbamoyl)benzo[b]thiophen-5-yl)difluoromethyl)(hydroxy)phosphoryl)oxy)methyl pivalate]	–	> 300 nM	< 100 nM	–	–	–
